According to PMC6835155, “Lessons from LIMK1 enzymology and their impact on inhibitor design” (Biochemical Journal, 2019):
Where a name gives a salt, the structure may show the parent alone. Read-outs that look alike come from different tables or passages of the source.

How the values were obtained:
LIMK2KD = target: T1, LIMK2KD (Homo sapiens, UniProt P53671); assay: Differential (dynamic) scanning fluorimetry (DSF) assay, LIMK2KD; format: binding
T1 construct: The cDNA coding for LIMK2 residues 330 to 632 was PCR amplified; His6 (N, cleaved yes); made in house; host or cells: baculovirus; Sf9 for virus, TriEx insect cells for expression
T1 sequence (P53671 330-632): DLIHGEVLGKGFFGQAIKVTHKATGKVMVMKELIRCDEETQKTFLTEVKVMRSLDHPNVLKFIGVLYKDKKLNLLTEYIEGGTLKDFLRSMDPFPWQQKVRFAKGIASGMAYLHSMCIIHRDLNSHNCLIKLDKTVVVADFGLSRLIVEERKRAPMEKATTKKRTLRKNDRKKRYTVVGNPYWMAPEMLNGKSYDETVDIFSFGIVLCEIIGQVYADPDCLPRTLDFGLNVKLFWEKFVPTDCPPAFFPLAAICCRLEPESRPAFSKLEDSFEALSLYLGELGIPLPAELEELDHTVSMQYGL

LIMK1KD = target: T2, LIMK1KD (Homo sapiens, UniProt P53667); assay: Differential (dynamic) scanning fluorimetry (DSF) assay, LIMK1KD; format: binding; conditions: 2 µM LIMK1KD, compound 10 µM, single shot; for ΔTm at 10 µM: read-out: TM Shift LIMK1 (K)
T2 construct: His6 (N, cleaved yes); made in house; host or cells: baculovirus; Sf9 for virus, TriEx insect cells for expression
T2 sequence (P53667 330-637): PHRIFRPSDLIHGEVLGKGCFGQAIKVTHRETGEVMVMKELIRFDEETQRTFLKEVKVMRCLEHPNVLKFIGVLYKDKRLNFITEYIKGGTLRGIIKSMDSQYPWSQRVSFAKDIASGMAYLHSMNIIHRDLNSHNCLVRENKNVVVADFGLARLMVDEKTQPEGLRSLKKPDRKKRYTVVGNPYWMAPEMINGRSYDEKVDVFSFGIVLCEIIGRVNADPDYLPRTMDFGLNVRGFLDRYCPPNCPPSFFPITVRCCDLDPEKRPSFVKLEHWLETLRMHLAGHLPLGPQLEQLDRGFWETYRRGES

[1] = LIMK2KD, compound 10 µM, single shot
[2] = LIMK2KD, compound 10 µM, single shot, read-out: TM Shift LIMK2 (K)
[3] = LIMK2KD, compound 10 µM, single shot, 10 µM

Compound	TM Shift LIMK1 (K) (LIMK1KD)	ΔTm at 10 µM (LIMK2KD; [2]) [°C]	ΔTm at 10 µM (LIMK1KD) [°C]	further results
CCc1cc(Nc2nccc(-c3c(-c4ccc(OC)c(C(=O)Nc5c(F)cccc5F)c4)nc4ccccn34)n2)c(OC)cc1N1CCC(N2CCN(S(C)(=O)=O)CC2)CC1 [GSK1904529A]	0.8	–	–	TM Shift LIMK2 (K) (LIMK2KD; [1]): 0.7 K
COc1ncc(-c2ccc3nccc(-c4ccnnc4)c3c2)cc1NS(=O)(=O)c1ccc(F)cc1F [GSK2126458 (GSK458)]	1.2	–	–	TM Shift LIMK2 (K) (LIMK2KD; [1]): 0.9 K
Cc1cccc(-c2nn3c(c2-c2ccnc4ccc(C(N)=O)cc24)CCC3)n1 [Galunisertib]	–	-0.5	0.3	–
Cc1cc(Nc2cc(CN3CCOCC3)c3nc(C)c(Cc4ccc(Cl)cc4F)n3n2)n[nH]1 [Gandotinib]	5.4	–	–	TM Shift LIMK2 (K) (LIMK2KD; LIMK2KD, compound 10 µM, single shot, listed as gandotinib, 10 µM): −0.5 K
COc1cc2ncnc(Nc3ccc(F)c(Cl)c3)c2cc1OCCCN1CCOCC1 [Gefitinib (ZD1839), Gefitinib]	–	–	-0.6	ΔTm at 10 µM (LIMK2KD; read-out: TM Shift LIMK2 (K), LIMK2KD, compound 10 µM, single shot): 0.5 °C
O=c1c(-c2ccc(O)cc2)coc2cc(O)cc(O)c12 [Genistein]	–	4	-0.3	–
COc1ccc2c(c1)c(C1=C(c3c[nH]c4ccccc34)C(=O)NC1=O)cn2CCCN(C)C [Go 6983]	0.5	–	–	TM Shift LIMK2 (K) (LIMK2KD; [1]): 1.8 K
CN1CCN(C2CCN(C(=O)Nc3cc(Oc4ccc(NC(=O)C5(C(=O)Nc6ccc(F)cc6)CC5)c(F)c4)ccn3)CC2)CC1 [Golvatinib (E7050), Golvatinib]	–	1	3	–
Cl.Cl.O=S(=O)(NCCNC/C=C/c1ccc(Br)cc1)c1cccc2cnccc12 [H 89 2HCl]	1.8	–	–	TM Shift LIMK2 (K) (LIMK2KD; [1]): 3.9 K
Cc1cc(Nc2ncnc3ccc(-c4ccc(CNCCS(C)(=O)=O)o4)cc23)ccc1Oc1ccn2ncnc2c1 [HER2-Inhibitor-1]	2.0	–	–	TM Shift LIMK2 (K) (LIMK2KD; [1]): 0.2 K
COc1ccc(S(=O)(=O)N(C(C)=O)c2ccccc2/C=C/c2cc[n+]([O-])cc2)cc1 [HMN-214]	–	1	2.5	–
CCS(=O)(=O)Nc1ccc2c(c1)/C(=C(/Nc1ccc(CN3CCCCC3)cc1)c1ccccc1)C(=O)N2 [Hesperadin]	–	1.2	2.7	–
C=CCc1ccc(O)c(-c2ccc(O)c(CC=C)c2)c1 [Honokiol]	–	1.7	0.9	–
O=C(c1ccc(Nc2nccc(-c3cc4ccccc4s3)n2)cc1)N1CCC(N2CCCC2)CC1 [IKK-16 (IKK Inhibitor VII)]	7.0	–	–	TM Shift LIMK2 (K) (LIMK2KD; [1]): 2.1 K
O=C(Nc1cc(C(F)(F)F)cc(C(F)(F)F)c1)c1cc(Cl)ccc1O [IMD 0354]	–	1.4	-0.6	–
CC(C)n1nc(-c2ccc3oc(N)nc3c2)c2c(N)ncnc21 [INK 128 (MLN0128)]	–	0.3	1.4	–
C[C@H](Nc1ncnc2nc[nH]c12)c1cc2cccc(Cl)c2c(=O)n1-c1ccccc1 [IPI-145 (INK1197)]	–	-0.6	-1.5	–
C=CC(=O)N1CCC[C@@H](n2nc(-c3ccc(Oc4ccccc4)cc3)c3c(N)ncnc32)C1 [Ibrutinib (PCI-32765), Ibrutinib]	–	0.7	2.4	–
C#Cc1cccc(Nc2ncnc3cc4c(cc23)OCCOCCOCCO4)c1 [Icotinib]	–	-0.6	-0.2	–
CC[C@H](Nc1ncnc2[nH]cnc12)c1nc2cccc(F)c2c(=O)n1-c1ccccc1 [Idelalisib]	0.5	–	–	TM Shift LIMK2 (K) (LIMK2KD; [3]): -0.8 K; TM Shift LIMK2 (K) (LIMK2KD; LIMK2KD, compound 10 µM, single shot, listed as CAL-101 (Idelalisib, GS-1101), 10 µM): 1.8 K; TM Shift LIMK1 (K) (LIMK1KD; listed as CAL-101 (Idelalisib, GS-1101)): -0.1 K
Cc1ccc(NC(=O)c2ccc(CN3CCN(C)CC3)cc2)cc1Nc1nccc(-c2cccnc2)n1 [Imatinib (STI571), Imatinib]	0.8	1	–	–
Cc1ccc(NC(=O)c2ccc(CN3CCN(C)CC3)cc2)cc1Nc1nccc(-c2cccnc2)n1 [Imatinib Mesylate (STI571), Imatinib Mesylate]	0.0	–	–	TM Shift LIMK2 (K) (LIMK2KD; [3]): 0.8 K
O=C1Nc2ccccc2/C1=C1/Nc2ccccc2C1=O [Indirubin]	–	2.6	1.4	–
CC(C)NC[C@@H](C(=O)N1CCN(c2ncnc3c2[C@H](C)C[C@H]3O)CC1)c1ccc(Cl)cc1 [Ipatasertib]	2.3	–	–	TM Shift LIMK2 (K) (LIMK2KD; [3]): 2.3 K
CCCNC(=O)Nc1ccc(Oc2ncnc3cc(OC)c(OC)cc23)cc1Cl [KRN 633]	–	1.4	1.9	–
O=c1cc(-c2cccc3c2Sc2ccccc2S3)oc(N2CCOCC2)c1 [KU-55933 (ATM Kinase Inhibitor)]	–	-0.1	-0.2	–
O=C(Cc1ccc(-c2ccc(OCCN3CCOCC3)cc2)cn1)NCc1ccccc1 [KX2-391]	1.7	–	–	TM Shift LIMK2 (K) (LIMK2KD; [1]): -0.3 K
COc1cc2nccc(Oc3ccc(NC(=O)Nc4ccc(F)cc4F)c(F)c3)c2cc1OC [Ki8751]	-0.1	–	–	TM Shift LIMK2 (K) (LIMK2KD; [1]): 1.5 K

Continued, in another order:

TM Shift LIMK1 (K) (LIMK1KD)	ΔTm at 10 µM (LIMK2KD; [2]) [°C]	ΔTm at 10 µM (LIMK1KD) [°C]	Compound	further results
–	1.1	0.5	CNc1nc(-c2ccc3c(N)n[nH]c3c2)cc(N2C[C@@H](C(=O)NC3CCCCC3)CC[C@H]2C)n1 [GSK2334470]	–
–	2	0.1	Cc1c(Cn2c(C)nc3c(C(=O)O)cc(N4CCOCC4)cc32)cccc1C(F)(F)F [GSK2636771]	–
0.0	–	–	O=C1Nc2ccc(I)cc2/C1=C/c1cc(Br)c(O)c(Br)c1 [GW5074]	TM Shift LIMK2 (K) (LIMK2KD; [1]): 5.6 K
–	0	-0.2	CNC(=O)c1ccc(-c2cnc3ncc(Cc4ccc5ncccc5c4)n3n2)cc1F [INCB28060]	–
0.0	–	–	Oc1ccc2ccccc2c1SSc1c(O)ccc2ccccc12 [IPA-3]	TM Shift LIMK2 (K) (LIMK2KD; [1]): 1.2 K
–	5.8	8.2	Nc1nc(Nc2ccc(S(N)(=O)=O)cc2)nn1C(=O)c1c(F)cccc1F [JNJ-7706621]	–
-0.1	–	–	Cn1cc(-c2ccc3nnc(C(F)(F)c4ccc5ncccc5c4)n3n2)cn1 [JNJ-38877605]	TM Shift LIMK2 (K) (LIMK2KD; [1]): -0.2 K
–	0.6	0.5	C[C@@H]1CN(CC(=O)Nc2ccc3c(c2)Cc2cccc(-c4cc(=O)cc(N5CCOCC5)o4)c2S3)C[C@H](C)O1 [KU-60019]	–
–	2	0.3	COc1ccc(-c2ccc3c(N4CCOCC4)nc(N4C[C@@H](C)O[C@@H](C)C4)nc3n2)cc1CO [KU-0063794]	–
–	0.8	1.7	O=C(c1ccc(/C=C/c2n[nH]c3ccccc23)cc1)N1CCNCC1 [KW-2449]	–
–	-0.3	0.2	Cc1cc(Nc2ncc(Cl)c(Nc3ccccc3S(=O)(=O)C(C)C)n2)c(OC(C)C)cc1C1CCNCC1 [LDK378]	–
–	0.4	0	O=c1cc(N2CCOCC2)oc2c(-c3ccccc3)cccc12 [LY294002]	–
2.1	–	–	CC(C)(C)Cn1c(N)nc2ccc(-c3[nH]c(C(C)(C)C)nc3-c3ccc(F)cc3)nc21 [LY2228820]	TM Shift LIMK2 (K) (LIMK2KD; [3]): 4.4 K
0.1	–	–	Cc1cnc(NC(=O)Nc2cc(Br)c(C)cc2OC[C@@H]2CNCCO2)cn1 [LY2603618]	TM Shift LIMK2 (K) (LIMK2KD; [3]): 0.7 K
–	–	5	Cc1cc(Nc2cc(CN3CCOCC3)c3nc(C)c(Cc4ccc(Cl)cc4F)n3n2)n[nH]1 [LY2784544]	TM Shift LIMK2 (K) (LIMK2KD; [3]): 1.1 K
